Assay results reported in patent publication US9789115B2 (priority 2010, dated 2017).

What was measured:
sigma 2 (σ-2) site = sigma 2 (σ-2) site (Homo sapiens, UniProt Q5BJF2); conditions: cited from earlier work
[1] = system: operated rats (plantar incision); conditions: rat, in vivo
[2] = system: opioid-treated operated rats; test: Experimental protocol 2: OIH precipitated by naloxone, withdrawal responses with von Frey filaments; format: in vivo, rat; conditions: for naloxone-precipitated hyperalgesia: naloxone on day 21
naïve rats = conditions: rat, in vivo

Chain of sigma 2 (σ-2) site (Q5BJF2 whole entry): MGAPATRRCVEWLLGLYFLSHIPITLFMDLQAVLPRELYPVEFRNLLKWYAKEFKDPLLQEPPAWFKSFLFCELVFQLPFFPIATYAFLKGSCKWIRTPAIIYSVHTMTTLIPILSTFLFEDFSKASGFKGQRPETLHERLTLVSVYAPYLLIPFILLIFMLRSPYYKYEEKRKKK

Molecule: SKF 10047
- affinity for the sigma 2 site (sigma 2 (σ-2) site): micromolar affinity

Molecule: CN1CC[C@]23c4c5ccc(O)c4O[C@H]2[C@@H](O)C=C[C@H]3[C@H]1C5 [morphine]
- analgesic effect of the opioid ([1]; ip): analgesic effect

Molecule: Cc1cc(OCCN2CCOCC2)nn1-c1ccc2ccccc2c1 [compound n° 63, 4-{2-[5-Methyl-1-(naphthalen-2-yl)-1H-pyrazol-3-yloxy]ethyl}morpholine]
- naloxone-precipitated hyperalgesia ([2]; 80 mg/kg co-administered with last dose of opioid): unable to precipitate hyperalgesia
- naloxone-precipitated hyperalgesia ([2]; 20 and 40 mg/kg co-administered with last dose of opioid): attenuation
- allodynia secondary to surgery and OIH when Morphine was used [1]: inhibits allodynia secondary to surgery and OIH
- decrease of the mechanical sensitization threshold induced by the surgery [1]: inhibit dose-dependently
- development of OIH [1]: inhibits dose-dependently
- enhancement of allodynia induced by perioperative morphine [1]: strongly reduced

Molecule: C=CCN1CC[C@]23c4c5ccc(O)c4O[C@H]2C(=O)CC[C@@]3(O)[C@H]1C5 [naloxone]
- nociceptive threshold after naloxone injection ([2]; naloxone 2 mg/kg on day 21 in opioid-treated rats): significant decrease in the nociceptive threshold below the basal value
- nociceptive threshold after naloxone injection ([2]; naloxone 2 mg/kg on day 21 in vehicle saline-treated rats): no significant effect

Molecule: CN1CCN(CCc2ccc(Cl)c(Cl)c2)CC1 [BD-1063]
- enhancement of allodynia induced by morphine administration (naïve rats): reduces the enhancement of allodynia
- morphine-induced hyperalgesia (naïve rats): inhibited
